Measurements published in patent US20150094474A1, “AGRICULTURAL CHEMICALS” (Redx Pharma Ltd., priority 2012, published 2015).

Assays:
[1] = system: peas; experiment: Herbicidal bioassay, peas (% necrosis); type: in vivo
Method in brief: (§1)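 Lolium perenne, barley, peas and Chinese cabbage at 2-4 true leaf stage sprayed simultaneously with a Potter tower, compounds in DMSO at six concentrations (0.05% to 0.0001%). Phytotoxicity scored as % necrosis per EPPO PP1/135 at set intervals; five replicates per treatment and species; DMSO and water controls.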

[2] = system: barley; experiment: Herbicidal bioassay, barley (% necrosis); type: in vivo
Method in brief: as §1

## CC(C=O)Oc1ccc(Oc2ccc(C(F)(F)F)cn2)cc1 (stereo not drawn) [Compound 28, 2-[4-[[5-(Trifluoromethyl)-2-pyridyl]oxy]phenoxy]propanal]
[1]; Dose 0.000001, Day 0
  Sum of % necrosis in Peas: C (less than 50% necrosis)
[1]; Dose 0.000001, Day 1
  Sum of % necrosis in Peas: C (less than 50% necrosis)
[1]; Dose 0.000001, Day 3
  Sum of % necrosis in Peas: C (less than 50% necrosis)
[1]; Dose 0.000001, Day 7
  Sum of % necrosis in Peas: C (less than 50% necrosis)
[1]; Dose 0.000001, Day 10
  Sum of % necrosis in Peas: C (less than 50% necrosis)
[1]; Dose 0.000001, Day 14
  Sum of % necrosis in Peas: C (less than 50% necrosis)
[1]; Dose 0.000001, Day 21
  Sum of % necrosis in Peas: B (50%-80% necrosis)
[1]; Dose 0.000005, Day 0
  Sum of % necrosis in Peas: C (less than 50% necrosis)
[1]; Dose 0.000005, Day 1
  Sum of % necrosis in Peas: C (less than 50% necrosis)
[1]; Dose 0.000005, Day 3
  Sum of % necrosis in Peas: C (less than 50% necrosis)
[1]; Dose 0.000005, Day 7
  Sum of % necrosis in Peas: B (50%-80% necrosis)
[1]; Dose 0.000005, Day 10
  Sum of % necrosis in Peas: B (50%-80% necrosis)
[1]; Dose 0.000005, Day 14
  Sum of % necrosis in Peas: B (50%-80% necrosis)
[1]; Dose 0.000005, Day 21
  Sum of % necrosis in Peas: A (over 80% necrosis)
[1]; Dose 0.00001, Day 0
  Sum of % necrosis in Peas: C (less than 50% necrosis)
[1]; Dose 0.00001, Day 1
  Sum of % necrosis in Peas: C (less than 50% necrosis)
[1]; Dose 0.00001, Day 3
  Sum of % necrosis in Peas: C (less than 50% necrosis)
[1]; Dose 0.00001, Day 7
  Sum of % necrosis in Peas: C (less than 50% necrosis)
[1]; Dose 0.00001, Day 10
  Sum of % necrosis in Peas: C (less than 50% necrosis)
[1]; Dose 0.00001, Day 14
  Sum of % necrosis in Peas: A (over 80% necrosis)
[1]; Dose 0.00001, Day 21
  Sum of % necrosis in Peas: A (over 80% necrosis)
[1]; Dose 0.00005, Day 0
  Sum of % necrosis in Peas: C (less than 50% necrosis)
[1]; Dose 0.00005, Day 1
  Sum of % necrosis in Peas: C (less than 50% necrosis)
[1]; Dose 0.00005, Day 3
  Sum of % necrosis in Peas: C (less than 50% necrosis)
[1]; Dose 0.00005, Day 7
  Sum of % necrosis in Peas: C (less than 50% necrosis)
[1]; Dose 0.00005, Day 10
  Sum of % necrosis in Peas: C (less than 50% necrosis)
[1]; Dose 0.00005, Day 14
  Sum of % necrosis in Peas: A (over 80% necrosis)
[1]; Dose 0.00005, Day 21
  Sum of % necrosis in Peas: A (over 80% necrosis)
[1]; Dose 0.0001, Day 0
  Sum of % necrosis in Peas: C (less than 50% necrosis)
[1]; Dose 0.0001, Day 1
  Sum of % necrosis in Peas: C (less than 50% necrosis)
[1]; Dose 0.0001, Day 3
  Sum of % necrosis in Peas: C (less than 50% necrosis)
[1]; Dose 0.0001, Day 7
  Sum of % necrosis in Peas: C (less than 50% necrosis)
[1]; Dose 0.0001, Day 10
  Sum of % necrosis in Peas: C (less than 50% necrosis)
[1]; Dose 0.0001, Day 14
  Sum of % necrosis in Peas: A (over 80% necrosis)
[1]; Dose 0.0001, Day 21
  Sum of % necrosis in Peas: A (over 80% necrosis)
[1]; Dose 0.0005, Day 0
  Sum of % necrosis in Peas: C (less than 50% necrosis)
[1]; Dose 0.0005, Day 1
  Sum of % necrosis in Peas: C (less than 50% necrosis)
[1]; Dose 0.0005, Day 3
  Sum of % necrosis in Peas: C (less than 50% necrosis)
[1]; Dose 0.0005, Day 7
  Sum of % necrosis in Peas: B (50%-80% necrosis)
[1]; Dose 0.0005, Day 10
  Sum of % necrosis in Peas: B (50%-80% necrosis)
[1]; Dose 0.0005, Day 14
  Sum of % necrosis in Peas: A (over 80% necrosis)
[1]; Dose 0.0005, Day 21
  Sum of % necrosis in Peas: A (over 80% necrosis)
[2]; Dose 0.000001, Day 0
  Sum of % necrosis in barley: C (less than 50% necrosis)
[2]; Dose 0.000001, Day 1
  Sum of % necrosis in barley: C (less than 50% necrosis)
[2]; Dose 0.000001, Day 3
  Sum of % necrosis in barley: C (less than 50% necrosis)
[2]; Dose 0.000001, Day 7
  Sum of % necrosis in barley: C (less than 50% necrosis)
[2]; Dose 0.000001, Day 10
  Sum of % necrosis in barley: C (less than 50% necrosis)
[2]; Dose 0.000001, Day 14
  Sum of % necrosis in barley: C (less than 50% necrosis)
[2]; Dose 0.000001, Day 21
  Sum of % necrosis in barley: C (less than 50% necrosis)
[2]; Dose 0.000005, Day 0
  Sum of % necrosis in barley: C (less than 50% necrosis)
[2]; Dose 0.000005, Day 1
  Sum of % necrosis in barley: C (less than 50% necrosis)
[2]; Dose 0.000005, Day 3
  Sum of % necrosis in barley: C (less than 50% necrosis)
[2]; Dose 0.000005, Day 7
  Sum of % necrosis in barley: C (less than 50% necrosis)
[2]; Dose 0.000005, Day 10
  Sum of % necrosis in barley: C (less than 50% necrosis)
[2]; Dose 0.000005, Day 14
  Sum of % necrosis in barley: C (less than 50% necrosis)
[2]; Dose 0.000005, Day 21
  Sum of % necrosis in barley: C (less than 50% necrosis)
[2]; Dose 0.00001, Day 0
  Sum of % necrosis in barley: C (less than 50% necrosis)
[2]; Dose 0.00001, Day 1
  Sum of % necrosis in barley: C (less than 50% necrosis)
[2]; Dose 0.00001, Day 3
  Sum of % necrosis in barley: C (less than 50% necrosis)
[2]; Dose 0.00001, Day 7
  Sum of % necrosis in barley: C (less than 50% necrosis)
[2]; Dose 0.00001, Day 10
  Sum of % necrosis in barley: C (less than 50% necrosis)
[2]; Dose 0.00001, Day 14
  Sum of % necrosis in barley: C (less than 50% necrosis)
[2]; Dose 0.00001, Day 21
  Sum of % necrosis in barley: C (less than 50% necrosis)
[2]; Dose 0.00005, Day 0
  Sum of % necrosis in barley: C (less than 50% necrosis)
[2]; Dose 0.00005, Day 1
  Sum of % necrosis in barley: C (less than 50% necrosis)
[2]; Dose 0.00005, Day 3
  Sum of % necrosis in barley: C (less than 50% necrosis)
[2]; Dose 0.00005, Day 7
  Sum of % necrosis in barley: C (less than 50% necrosis)
[2]; Dose 0.00005, Day 10
  Sum of % necrosis in barley: C (less than 50% necrosis)
[2]; Dose 0.00005, Day 14
  Sum of % necrosis in barley: C (less than 50% necrosis)
[2]; Dose 0.00005, Day 21
  Sum of % necrosis in barley: C (less than 50% necrosis)
[2]; Dose 0.0001, Day 0
  Sum of % necrosis in barley: C (less than 50% necrosis)
[2]; Dose 0.0001, Day 1
  Sum of % necrosis in barley: C (less than 50% necrosis)
[2]; Dose 0.0001, Day 3
  Sum of % necrosis in barley: C (less than 50% necrosis)
[2]; Dose 0.0001, Day 7
  Sum of % necrosis in barley: C (less than 50% necrosis)
[2]; Dose 0.0001, Day 10
  Sum of % necrosis in barley: C (less than 50% necrosis)
[2]; Dose 0.0001, Day 14
  Sum of % necrosis in barley: C (less than 50% necrosis)
[2]; Dose 0.0001, Day 21
  Sum of % necrosis in barley: B (50%-80% necrosis)
[2]; Dose 0.0005, Day 0
  Sum of % necrosis in barley: C (less than 50% necrosis)
[2]; Dose 0.0005, Day 1
  Sum of % necrosis in barley: C (less than 50% necrosis)
[2]; Dose 0.0005, Day 3
  Sum of % necrosis in barley: C (less than 50% necrosis)
[2]; Dose 0.0005, Day 7
  Sum of % necrosis in barley: C (less than 50% necrosis)
[2]; Dose 0.0005, Day 10
  Sum of % necrosis in barley: C (less than 50% necrosis)
[2]; Dose 0.0005, Day 14
  Sum of % necrosis in barley: C (less than 50% necrosis)
[2]; Dose 0.0005, Day 21
  Sum of % necrosis in barley: A (over 80% necrosis)
